From patent publication EP0323590A2, “Carbazoyl derivatives” (ONO PHARMACEUTICAL CO., LTD., priority 1987, dated 1989)
Structures can show the parent of a compound that is named as a salt.

The compounds below were run on Maillard reaction (assay: Inhibitory effect on Maillard reaction in vitro (BSA + glucose incubation, fluorescence)). Conditions: 6mM test compound, 100 mg/ml bovine serum albumin (BSA), 200 mM glucose, 0.5 M phosphatic buffer pH 7.38, a week at 37°C; fluorescence excitation 360nm, emission 450 nm.
Assay type: biochemical
Procedure: In order to evaluate the inhibitory effect on Maillard reaction in vitro, of the compounds in the present invention, the measurement was carried out under conditions described below.
After incubation, the incubated medium was diluted 100 times with the same phosphatic buffer solution, and the fluorescence spectrum was measured at the excitation maximum of 360nm and the emission maximum of 450 nm.
Inhibition percentage of the test compounds was calculated by the following equation: [formula] ΔI₁ : fluorescence of test compounds ΔI₂ : fluorescence of (test compounds + glucose), ΔI₃ : fluorescence of (test compounds + BSA), ΔI₄ : fluorescence of (test compounds + BSA + glucose), ΔI : fluorescence of (BSA + glucose)

Compared with `CN(N)C(=O)Nc1ccccc1.Cl` [1(q), 2-methyl-4-phenylsemicarbazide hydrochloride], `Cl.NNC(=O)NCc1ccccc1` [1(f), 4-benzylsemicarbazide hydrochloride] is higher in “Inhibitory effect (%) (6mM)” value: 74% for the first, 90% for the second.

Going from `NNC(=O)NC1CCCCC1` [1(a), 4-cyclohexyl semicarbozide] to `NNC(=O)C1CCCC1` [2(i), cyclopentancarbonylhydrozine], the “Inhibitory effect (%) (6mM)” value falls from 100% to 37%.

`NNC(=O)Nc1cccc2ccccc12` [1(j), 4-(1-naphthyl) semicorbazide hydrochloride] and `NNC(=O)CCc1ccccc1` [2(f), 3-phenylpropionohydrazide] are the same in “Inhibitory effect (%) (6mM)” value: 100% for the first, 100% for the second.

First: NNC(=O)c1ccccc1N [Example 2(a), 2-aminobenzohydrazide]
Second: Cl.NNC(=O)Nc1ccc(Cl)cc1 [1(e), 4-(4-chlorophenyl) semicarbazide hydrochloride]
The “Inhibitory effect (%) (6mM)” value of the first is higher: 100% for the first, 65% for the second.

First: Cl.Cl.NNC(=O)NCCCCCCNC(=O)NN [1(i), 4-[6-(3-aminoureido)hexyl]semicarbazide dihydrochloride]
Second: CC(=O)NN [acetohydrazide]
The “Inhibitory effect (%) (6mM)” value of the first is higher: 100% for the first, 35% for the second.

`NC(N)=O` [Urea, reference compound] was tested, and the “Inhibitory effect (%) (6mM)” value was 28%.
